Where two headings read alike, the source gives them in different places.
Experiments:
[1] = tested on: PSMA + PC-3 PiP and PSMA − PC-3 flu tumor xenografts; conditions: radioiodinated compound, Chen et al., 2008; cited from earlier work
[2] = tested on: PSMA + PC-3 PiP and PSMA − PC-3 flu tumor xenografts; conditions: for Biodistribution: PC-3 PiP: PSMA+ tumor xenograft; for Biodistribution: PC-3 flu: PSMA− tumor xenograft

O=C(O)CC[C@H](NC(=O)N[C@@H](CCCCNC(=O)c1ccc(I)cc1)C(=O)O)C(=O)O [YC-I-27]
Tumor uptake (in words) [1]: high and prolonged tumor uptake

O=C(O)CC[C@H](NC(=O)N[C@@H](CCCCNC(=O)c1ccc([131I])cc1)C(=O)O)C(=O)O [[^131I]YC-I-27]
Biodistribution: Sm int. ([2]; 1 H post-injection): 1.83 ± 0.41 % ID/g | Biodistribution: bladder ([2]; 1 H post-injection): 2.99 ± 0.42 % ID/g | Biodistribution: blood ([2]; 1 H post-injection): 1.57 ± 0.69 % ID/g | Biodistribution: heart ([2]; 1 H post-injection): 1.88 ± 0.66 % ID/g | Biodistribution: liver ([2]; 1 H post-injection): 7.37 ± 1.29 % ID/g | Biodistribution: lung ([2]; 1 H post-injection): 4.67 ± 0.63 % ID/g | Biodistribution: muscle ([2]; 1 H post-injection): 0.73 ± 0.22 % ID/g | Biodistribution: spleen ([2]; 1 H post-injection): 21.2 ± 3.62 % ID/g | Biodistribution: stomach ([2]; 1 H post-injection): 0.92 ± 0.16 % ID/g | Biodistribution: thyroid ([2]; 1 H post-injection): 0.45 ± 0.14 % ID/g | Biodistribution: Sm int. ([2]; 2 H post-injection): 1.92 ± 0.55 % ID/g | Biodistribution: bladder ([2]; 2 H post-injection): 2.96 ± 1.12 % ID/g | Biodistribution: blood ([2]; 2 H post-injection): 0.86 ± 0.20 % ID/g | Biodistribution: heart ([2]; 2 H post-injection): 1.31 ± 0.58 % ID/g | Biodistribution: liver ([2]; 2 H post-injection): 5.69 ± 1.49 % ID/g | Biodistribution: lung ([2]; 2 H post-injection): 4.92 ± 1.95 % ID/g | Biodistribution: muscle ([2]; 2 H post-injection): 0.62 ± 0.19 % ID/g | Biodistribution: spleen ([2]; 2 H post-injection): 26.25 ± 15.11 % ID/g | Biodistribution: stomach ([2]; 2 H post-injection): 0.71 ± 0.46 % ID/g | Biodistribution: thyroid ([2]; 2 H post-injection): 0.24 ± 0.18 % ID/g | Biodistribution: Sm int. ([2]; 4 H post-injection): 1.37 ± 0.51 % ID/g | Biodistribution: bladder ([2]; 4 H post-injection): 1.37 ± 0.48 % ID/g | Biodistribution: blood ([2]; 4 H post-injection): 0.59 ± 0.27 % ID/g | Biodistribution: heart ([2]; 4 H post-injection): 0.87 ± 0.24 % ID/g | Biodistribution: liver ([2]; 4 H post-injection): 3.21 ± 1.14 % ID/g | Biodistribution: lung ([2]; 4 H post-injection): 2.72 ± 1.01 % ID/g | Biodistribution: muscle ([2]; 4 H post-injection): 0.43 ± 0.30 % ID/g | Biodistribution: spleen ([2]; 4 H post-injection): 18.2 ± 6.19 % ID/g | Biodistribution: stomach ([2]; 4 H post-injection): 0.69 ± 0.23 % ID/g | Biodistribution: thyroid ([2]; 4 H post-injection): 0.10 ± 0.22 % ID/g | Biodistribution: Sm int. ([2]; 21 H post-injection): 0.33 ± 0.12 % ID/g | Biodistribution: bladder ([2]; 21 H post-injection): 0.48 ± 0.09 % ID/g | Biodistribution: blood ([2]; 21 H post-injection): 0.16 ± 0.06 % ID/g | Biodistribution: heart ([2]; 21 H post-injection): 0.46 ± 0.22 % ID/g | Biodistribution: liver ([2]; 21 H post-injection): 0.56 ± 0.09 % ID/g | Biodistribution: lung ([2]; 21 H post-injection): 1.63 ± 0.47 % ID/g | Biodistribution: muscle ([2]; 21 H post-injection): 0.14 ± 0.03 % ID/g | Biodistribution: spleen ([2]; 21 H post-injection): 5.25 ± 1.51 % ID/g | Biodistribution: stomach ([2]; 21 H post-injection): 0.40 ± 0.07 % ID/g | Biodistribution: thyroid ([2]; 21 H post-injection): 0.13 ± 0.11 % ID/g | Biodistribution: PC-3 PiP ([2]; 1 H post-injection): 13.1 ± 5.55 % ID/g | Biodistribution: PC-3 PiP ([2]; 2 H post-injection): 15.5 ± 4.19 % ID/g | Biodistribution: PC-3 PiP ([2]; 4 H post-injection): 16.3 ± 3.80 % ID/g | Biodistribution: PC-3 PiP ([2]; 21 H post-injection): 25.6 ± 10.2 % ID/g | Biodistribution: PC-3 flu ([2]; 1 H post-injection): 0.62 ± 0.11 % ID/g | Biodistribution: PC-3 flu ([2]; 2 H post-injection): 0.40 ± 0.11 % ID/g | Biodistribution: PC-3 flu ([2]; 4 H post-injection): 0.22 ± 0.07 % ID/g | Biodistribution: PC-3 flu ([2]; 21 H post-injection): 0.06 ± 0.01 % ID/g | PSMA positive tumor uptake (in words) ([2]; biodistributions of Tables 2, 3, 9, 10): demonstrated PSMA positive tumor uptake

Source: patent US20200231614A1, “PSMA TARGETED RADIOHALOGENATED UREAS FOR CANCER RADIOTHERAPY” (THE JOHNS HOPKINS UNIVERSITY, priority 2015, published 2020)
